Experimental findings from patent US20130102556A1, “Use of N1,N4-bis[3-(Ethylamino)Propyl]-2-Butene-1,4-Diamine Compounds in Combination with Epigenetic-Acting Pharmaceuticals for Enhanced Cancer Therapy” (THE JOHNS HOPKINS UNIVERSITY, priority 2010, published 2013) are described below.

The subject of one assay is H3K4me2. The assay can be described thus: Global H3K4me2 histone mark in Calu-6 cells, Western blot of nuclear protein. The format is cell-based, human. The note with it: Calu-6, increasing doses (1, 5, 10 μM), 24 hours of treatment.
The next assay has as its system acetylated H3K9 (AcH3K9). The assay can be described thus: Global acetylated H3K9 histone mark in Calu-6 cells, Western blot of nuclear protein. In kind it is cell-based, human. The note with it: Calu-6, increasing doses, 24 and 48 hours.

For `CCNCCCNC/C=C\CNCCCNCC` [PG-11047, (2Z)-N1,N4-bis[3-(ethylamino)propyl]-2-butene-1,4-diamine], the “increase in H3K4me2 protein” value in the assay with H3K4me2 is 2-4 fold. Further, the “increase in global amounts of acetylated H3K9 protein” value in the assay on acetylated H3K9 (AcH3K9) is 2-3 fold.
